The values below come from patent US20110118238A1, “2-ANILINOPURIN-8-ONES AS INHIBITORS OF TTK/MPS1 FOR THE TREATMENT OF PROLIFERATIVE DISORDERS” (ASTRAZENECA AB, priority 2007, published 2011).

pIC50: −log10 of the molar value.

Experiment [1] deals with T1, N-terminal GST tagged full length human TTK kinase (Homo sapiens, UniProt P33981).
T1 construct: N-terminal GST tagged full length human TTK kinase; GST (N); made in house; host or cells: insect cells
T1 sequence (P33981 1-857): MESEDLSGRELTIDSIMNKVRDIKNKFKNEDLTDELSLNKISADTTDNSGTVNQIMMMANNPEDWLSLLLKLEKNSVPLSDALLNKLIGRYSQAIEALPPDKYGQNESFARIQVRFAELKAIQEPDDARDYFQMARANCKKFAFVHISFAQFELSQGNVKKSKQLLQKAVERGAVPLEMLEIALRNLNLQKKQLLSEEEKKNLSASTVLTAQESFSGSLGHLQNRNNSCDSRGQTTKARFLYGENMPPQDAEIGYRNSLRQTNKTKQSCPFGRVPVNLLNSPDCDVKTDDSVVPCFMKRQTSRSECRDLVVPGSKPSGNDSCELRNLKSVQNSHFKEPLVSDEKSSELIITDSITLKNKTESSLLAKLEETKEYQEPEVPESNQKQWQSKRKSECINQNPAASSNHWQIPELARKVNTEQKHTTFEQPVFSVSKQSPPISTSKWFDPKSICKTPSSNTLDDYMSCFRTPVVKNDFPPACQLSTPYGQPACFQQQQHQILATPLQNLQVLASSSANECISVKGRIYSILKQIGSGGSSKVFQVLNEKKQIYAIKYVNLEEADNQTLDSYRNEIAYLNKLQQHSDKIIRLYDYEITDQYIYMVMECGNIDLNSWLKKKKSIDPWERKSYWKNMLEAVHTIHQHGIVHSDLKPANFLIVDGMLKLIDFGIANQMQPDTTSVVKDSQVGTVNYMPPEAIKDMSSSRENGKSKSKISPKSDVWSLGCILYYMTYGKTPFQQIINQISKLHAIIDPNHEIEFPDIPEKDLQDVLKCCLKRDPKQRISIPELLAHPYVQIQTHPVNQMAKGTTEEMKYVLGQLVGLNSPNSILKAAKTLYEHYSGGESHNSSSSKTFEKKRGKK
In words: In Vitro TTK Kinase Assay 1 (AlphaScreen). The class given is biochemical. As to conditions: recombinant TTK, 10 μM ATP, read-out: EAA: Enzyme Assay Activity (In Vitro TTK kinase assay 1). As for the experimental part: Aliquots (2 μL) of each compound dilution were placed into wells of a Greiner 384-well low volume white polystyrene plate (Greiner Bio-one).
The resultant signals arising from laser light excitation at 680 nm were read using a Packard Envision instrument.

In experiment [2] the target is T1, N-terminal GST tagged full length human TTK kinase. Nature of the experiment: In Vitro TTK Kinase Assay 2 (Caliper LabChip LC3000). In kind it is biochemical. As to conditions: recombinant TTK, 12 μM ATP, read-out: EAA2: Enzyme Assay Activity (In Vitro TTK kinase assay 2). As for the experimental part: Each reaction was stopped by the addition of EDTA to a concentration of 40 mM in a solution which also comprised 0.1% coating reagent (Caliper LS), 100 mM HEPES pH 7.5, 0.015% v/v Brij™-35 and 5% DMSO. The stopped enzyme reactions were sipped through capillaries onto a Caliper chip where the peptide substrate and phosphorylated product were separated and detected via laser-induced fluorescence.

For the molecule `COc1cc(C(=O)NC2CCN(C)CC2)ccc1Nc1ncc2c(n1)n(C1CCCC1)c(=O)n2CC#N` [Example 37, 4-{[7-(Cyanomethyl)-9-cyclopentyl-8-oxo-8,9-dihydro-7H-purin-2-yl]amino}-3-methoxy-N-(1-methylpiperidin-4-yl)-benzamide], the pIC50 in experiment [1] is 6.30; in experiment [2] it was 7.08.
For `CCn1c(=O)n(C2CCCC2)c2nc(Nc3ccc(S(C)(=O)=O)cc3OC)ncc21` [Example 32, 9-Cyclopentyl-7-ethyl-2-{[2-methoxy-4-(methylsulfonyl)-phenyl]-amino}-7,9-dihydro-8H-purin-8-one] the same measures were 5.88 and 7.61.
For “4-[(9-Cyclopentyl-7-ethyl-8-oxo-8,9-dihydro-7H-purin-2-yl)-amino]-3-methoxy-N-(1-methylpiperidin-4-yl)benzamide [Example 33]”, in that order: 6.40 and 7.42.
For `N#CCn1c(=O)n(C2CCCC2)c2nc(Nc3ccc(S(N)(=O)=O)cc3)ncc21` [Example 38, 4-{[7-(Cyanomethyl)-9-cyclopentyl-8-oxo-8,9-dihydro-7H-purin-2-yl]amino}benzenesulfonamide] the same measures were 5.82 and 6.88.
With `Cn1c(=O)n(C2CCCC2)c2nc(Nc3ccc(N4CCS(=O)(=O)CC4)cc3)ncc21` [Example 12, 9-Cyclopentyl-2-{[4-(1,1-dioxidothiomorpholin-4-yl)-phenyl]-amino}-7-methyl-7,9-dihydro-8H-purin-8-one], the figures for the pIC50 in experiment [1] and in experiment [2] were 5.93 and 7.82, respectively.
For `COc1cc(C(=O)NC2CC3CCCC(C2)N3C)ccc1Nc1ncc2c(n1)n(C1CCCC1)c(=O)n2C` (stereo not drawn) [Example 14, 4-[(9-Cyclopentyl-7-methyl-8-oxo-8,9-dihydro-7H-purin-2-yl)-amino]-3-methoxy-N-(9-methyl-9-azabicyclo[3.3.1]non-3-yl)benzamide] the same measures were 5.81 and 7.16.
As for `CCn1c(=O)n(C2CCCC2)c2nc(Nc3ccc(OC4CCN(C)CC4)cc3OC)ncc21` [Example 30, 9-Cyclopentyl-7-ethyl-2-({2-methoxy-4-[(1-methylpiperidin-4-yl)-oxy]phenyl}amino)-7,9-dihydro-8H-purin-8-one], the pIC50 in experiment [1] is 7.04; in experiment [2], 7.97.
For `COc1cc(OC2CCN(C)C2)ccc1Nc1ncc2c(n1)n(C1CCCC1)c(=O)n2C` (stereo not drawn) [Example 24, 9-Cyclopentyl-2-({2-methoxy-4-[(1-methylpyrrolidin-3-yl)-oxy]-phenyl}amino)-7-methyl-7,9-dihydro-8H-purin-8-one] the same measures were 6.82 and 7.76.
For `COc1cc(C2CCN(C)CC2)ccc1Nc1ncc2c(n1)n(C1CCCC1)c(=O)n2C` [Example 28, 9-Cyclopentyl-2-{[2-methoxy-4-(1-methylpiperidin-4-yl)-phenyl]amino}-7-methyl-7,9-dihydro-8H-purin-8-one] the same measures were 7.26 and 7.84.
For `COc1cc(N2CCOCC2)ccc1Nc1ncc2c(n1)n(C1CCCC1)c(=O)n2C` [Example 6, 9-Cyclopentyl-2-[(2-methoxy-4-morpholin-4-ylphenyl)-amino]-7-methyl-7,9-dihydro-8H-purin-8-one] the same measures were 6.40 and 7.11.
`CCn1c(=O)n(C2CCCC2)c2nc(Nc3ccc(N4CCN(C)CC4)cc3OC)ncc21` [Example 29, 9-Cyclopentyl-7-ethyl-2-{[2-methoxy-4-(4-methylpiperazin-1-yl)-phenyl]amino}-7,9-dihydro-8H-purin-8-one]: the results for the pIC50 in experiment [1] and in experiment [2] were 6.66 and 7.27, respectively.
For `CCOc1cc(N2CCCN(C)CC2)ccc1Nc1ncc2c(n1)n(C1CCCC1)c(=O)n2C` [Example 21, 9-Cyclopentyl-2-{[2-ethoxy-4-(4-methyl-1,4-diazepan-1-yl)-phenyl]amino}-7-methyl-7,9-dihydro-8H-purin-8-one] the same measures were 6.42 and 7.33.
For `CN1CCC(NC(=O)c2ccc(Nc3ncc4c(n3)n(C3CCCC3)c(=O)n4C)c(Cl)c2)CC1` [Example 15, 3-Chloro-4-[(9-cyclopentyl-7-methyl-8-oxo-8,9-dihydro-7H-purin-2-yl)amino]-N-(1-methylpiperidin-4-yl)benzamide] the same measures were 5.49 and 6.63.
As for `COc1cc(C(=O)N[C@@H]2CCNC2)ccc1Nc1ncc2c(n1)n(C1CCCC1)c(=O)n2C` [Example 68, 4-[(9-Cyclopentyl-7-methyl-8-oxo-8,9-dihydro-7H-purin-2-yl)-amino]-3-methoxy-N-[(3R)-pyrrolidin-3-yl]benzamide], the pIC50 in experiment [2] was 7.19.
Same read-out and setting: the figure for `COc1cc(N2CCN(C)CC2)ccc1Nc1ncc2c(n1)n(C1CCNCC1)c(=O)n2C` [Example 70, 2-{[2-Methoxy-4-(4-methylpiperazin-1-yl)phenyl]amino}-7-methyl-9-piperidin-4-yl-7,9-dihydro-8H-purin-8-one] is 5.27; for `COc1cc(C(=O)O)ccc1Nc1ncc2c(n1)n(C1CCCC1)c(=O)n2C` [Example 49, 4-[(9-Cyclopentyl-7-methyl-8-oxo-8,9-dihydro-7H-purin-2-yl)-amino]-3-methoxybenzoic acid] it is 7.14; for `COc1cc(C(=O)N2CCC(N3CCCC3)CC2)ccc1Nc1ncc2c(n1)n(C1CCCC1)c(=O)n2C` [Example 56, 9-Cyclopentyl-2-({2-methoxy-4-[(4-pyrrolidin-1-ylpiperidin-1-yl)-carbonyl]phenyl}amino)-7-methyl-7,9-dihydro-8H-purin-8-one] it is 7.17.
On the same count and under the same terms, under `CC(C)Oc1ccc(Nc2ncc3c(n2)n(C2CCCC2)c(=O)n3C)cc1` [Example 74, 9-Cyclopentyl-2-[(4-isopropoxyphenyl)amino]-7-methyl-7,9-dihydro-8H-purin-8-one] stands 7.54.
Still for that read-out and setting: under `COc1cc(C(=O)NCCCCN(C)C)ccc1Nc1ncc2c(n1)n(C1CCCC1)c(=O)n2C` [Example 61, 4-[(9-Cyclopentyl-7-methyl-8-oxo-8,9-dihydro-7H-purin-2-yl)-amino]-N-[4-(dimethylamino)butyl]-3-methoxybenzamide] stands 7.27; under `COCCN1CCC(NC(=O)c2ccc(Nc3ncc4c(n3)n(C3CCCC3)c(=O)n4C)c(OC)c2)CC1` [Example 59, 4-[(9-Cyclopentyl-7-methyl-8-oxo-8,9-dihydro-7H-purin-2-yl)-amino]-3-methoxy-N-[1-(2-methoxyethyl)piperidin-4-yl]benzamide], 7.13.
`COc1cc(C(=O)NCCN2CCCCC2)ccc1Nc1ncc2c(n1)n(C1CCCC1)c(=O)n2C` [Example 63, 4-[(9-Cyclopentyl-7-methyl-8-oxo-8,9-dihydro-7H-purin-2-yl)-amino]-3-methoxy-N-(2-piperidin-1-ylethyl)benzamide]: in experiment [2], the pIC50 was 7.18.
The same measure, in the same setting: under `COc1cc(C(=O)N2CCN(C)CC2)ccc1Nc1ncc2c(n1)n(C1CCCC1)c(=O)n2C` [Example 50, 9-Cyclopentyl-2-({2-methoxy-4-[(4-methylpiperazin-1-yl)carbonyl]-phenyl}amino)-7-methyl-7,9-dihydro-8H-purin-8-one] stands 7.22; under `COc1cc(C(=O)N(C)C)ccc1Nc1ncc2c(n1)n(C1CCCC1)c(=O)n2C` [Example 65, 4-[(9-Cyclopentyl-7-methyl-8-oxo-8,9-dihydro-7H-purin-2-yl)-amino]-3-methoxy-N,N-dimethylbenzamide], 7.57; under `CCOc1cc(N2CCN(C)CC2)ccc1Nc1ncc2c(n1)n(C(C)C)c(=O)n2C` [Example 46, 2-{[2-Ethoxy-4-(4-methylpiperazin-1-yl)phenyl]amino}-9-isopropyl-7-methyl-7,9-dihydro-8H-purin-8-one], 6.84.
In the case of `COc1cc(C2CCN(C)CC2)ccc1Nc1ncc2c(n1)n(C(C)C)c(=O)n2C` [Example 47, 9-Isopropyl-2-{[2-methoxy-4-(1-methylpiperidin-4-yl)phenyl]-amino}-7-methyl-7,9-dihydro-8H-purin-8-one], the pIC50 in experiment [1] is 5.25.
As for `Cn1c(=O)n(C2CCCC2)c2nc(Nc3ccc(N4CCCCC4)cc3)ncc21` [Example 77, 9-Cyclopentyl-7-methyl-2-[(4-piperidin-1-ylphenyl)amino]-7,9-dihydro-8H-purin-8-one], the pIC50 in experiment [2] was 6.96.
